In patent US9073858B2, “Methods of targeted drug development” (priority 2010, dated 2015):
Read-outs that look alike come from different tables or passages of the source.

How the values were obtained:
[1] = Stability on incubation with mouse liver microsomes (MLM); type: in vitro ADME; settings: percentage left after incubation with mouse liver microsomes for 30 minutes
Protocol: (§1) Stability of hydroxyquinoline analogs were determined (see e.g., TABLE 18). MLM represents the percentage left after incubation with mouse liver microsomes for 30 minutes. HLM represents the percentage left after incubation with human liver microsomes for 30 minutes.
(§2) Stability of analogs having a benzaldehyde derived ring were determined (see e.g., TABLE 18). MLM represents the percentage left after incubation with mouse liver microsomes for 30 minutes. HLM represents the percentage left after incubation with human liver microsomes for 30 minutes.

[2] = Stability on incubation with human liver microsomes (HLM); type: in vitro ADME; settings: percentage left after incubation with human liver microsomes for 30 minutes
Protocol: as §1, §2

[3] = tested on: epithelial carcinoma A431 cell line; experiment: MTT Cell Proliferation Assay, A431 cell line; type: cell-based; settings: for MTT (10 Point follow-up) ratio / MTT-72 h A431/MDBK (ratio): value in brackets; for MTT (10 Point follow-up) ratio: numerically MDBK over A431; for MTT-72 h A431/MDBK (ratio): numerically MDBK value over A431 value; for MTT-72 h % Max: maximal effect printed after the ratio
Procedure, shortened: (§3)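 Cells plated overnight, then exposed 3 days at 37 °C, 5% CO2 to compound in growth medium with 0.5% FBS and 0.5% DMSO final (0.5% DMSO as control).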

EGFR = molecular target: T1, EGFR (Homo sapiens, UniProt P00533); experiment: EGFR in-cell Western (ICW) screening protocol; type: cell-based; set-up: unit not given here; settings: for ICW Screen: initial screen
T1 construct: endogenous in cells; host or cells: A431 cells (ATCC CRL-1555)
Procedure, shortened: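 Serum-starved cells treated with compound 4 h at 37 °C, then stimulated with EGF (20 or 0 ng/ml solution added) in its continued presence. In-cell Western on fixed cells: phospho-EGFR (800 channel) normalised to total EGFR (700 channel), % inhibition calculated against EGF-stimulated and unstimulated no-compound wells.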

MDBK line = experiment: MTT Cell Proliferation Assay, MDBK line; type: cell-based, bovine
Procedure, shortened: as §3

[4] = Homo sapiens, A-431, 10 point follow-up, first value of pair, read-out: MTT (10 Point follow-up) A431
[5] = Homo sapiens, A-431, 72 h, 72 h, first value of A431/MDBK pair, read-out: MTT-72 h A431
[6] = Bos taurus, MDBK, 10 point follow-up, second value of pair, read-out: MTT (10 Point follow-up) MDBK
[7] = Bos taurus, MDBK, 72 h, second value of A431/MDBK pair, read-out: MTT-72 h MDBK
[8] = 72 h, first value of A431/MDBK pair, read-out: MTT-72 h A431
[9] = 72 h, second value of A431/MDBK pair, read-out: MTT-72 h MDBK
[10] = 10 point follow-up, first value of pair, read-out: MTT (10 Point follow-up) A431
[11] = 10 point follow-up, second value of pair, read-out: MTT (10 Point follow-up) MDBK

T1 sequence (P00533 25-1210): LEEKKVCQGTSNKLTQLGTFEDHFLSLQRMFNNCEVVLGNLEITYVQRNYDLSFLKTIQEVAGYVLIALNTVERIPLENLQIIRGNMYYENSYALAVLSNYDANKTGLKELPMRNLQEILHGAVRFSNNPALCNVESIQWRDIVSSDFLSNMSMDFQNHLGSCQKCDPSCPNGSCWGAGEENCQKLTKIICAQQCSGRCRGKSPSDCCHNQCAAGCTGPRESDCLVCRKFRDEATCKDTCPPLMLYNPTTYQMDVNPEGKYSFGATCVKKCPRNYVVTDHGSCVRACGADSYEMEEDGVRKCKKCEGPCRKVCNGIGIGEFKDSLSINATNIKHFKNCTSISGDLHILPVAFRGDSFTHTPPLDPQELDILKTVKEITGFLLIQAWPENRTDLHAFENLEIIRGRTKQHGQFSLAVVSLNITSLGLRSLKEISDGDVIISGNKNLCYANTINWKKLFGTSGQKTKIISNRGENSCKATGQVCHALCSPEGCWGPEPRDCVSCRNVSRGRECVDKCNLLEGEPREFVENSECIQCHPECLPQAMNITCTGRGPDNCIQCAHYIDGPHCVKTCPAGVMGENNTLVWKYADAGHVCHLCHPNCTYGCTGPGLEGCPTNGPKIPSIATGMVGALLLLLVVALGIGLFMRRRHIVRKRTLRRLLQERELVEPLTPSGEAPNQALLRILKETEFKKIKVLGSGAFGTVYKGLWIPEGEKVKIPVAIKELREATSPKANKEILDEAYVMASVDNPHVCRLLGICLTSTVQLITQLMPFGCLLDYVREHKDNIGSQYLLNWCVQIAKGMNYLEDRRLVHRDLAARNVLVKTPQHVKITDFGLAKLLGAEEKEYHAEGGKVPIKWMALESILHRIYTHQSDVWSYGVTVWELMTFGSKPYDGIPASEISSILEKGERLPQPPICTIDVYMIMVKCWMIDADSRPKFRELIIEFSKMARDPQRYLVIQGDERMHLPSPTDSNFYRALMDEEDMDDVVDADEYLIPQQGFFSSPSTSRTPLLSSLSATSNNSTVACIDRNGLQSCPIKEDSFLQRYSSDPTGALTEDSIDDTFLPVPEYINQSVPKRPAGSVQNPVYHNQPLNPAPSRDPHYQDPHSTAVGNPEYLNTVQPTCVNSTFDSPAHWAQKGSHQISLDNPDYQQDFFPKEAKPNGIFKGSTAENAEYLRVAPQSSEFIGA

| Structure (SMILES) | MTT (10 Point follow-up) ratio ([3]; 10 point follow-up) | MTT-72 h A431/MDBK (ratio) ([3]; 72 h) | IC50 [3, 4] [µM] | IC50 [3, 5] [µM] | ICW Screen (EGFR) | ICW Re-Test (EGFR) | IC50 (MDBK line; [6]) [µM] | IC50 (MDBK line; [7]) [µM] | other results |
| --- | --- | --- | --- | --- | --- | --- | --- | --- | --- |
| Cc1cccc(NC(c2cccc(Cl)c2Cl)c2ccc3cccnc3c2O)n1 (stereo not shown) [AD4-12905] | – | – | – | – | – | – | – | – | MLM % Remaining@ 30 Min [1]: 23%; HLM % Remaining@ 30 Min [2]: 63% |
| Oc1c(C(Nc2ccc(Cl)cn2)c2ccc(C(F)(F)F)c(F)c2)ccc2cccnc12 (stereo not shown) [AD4-13055] | – | – | – | – | – | – | – | – | MLM % Remaining@ 30 Min [1]: 57%; HLM % Remaining@ 30 Min [2]: 100% |
| Cc1cccc(NC(c2ccc(Cl)c(Cl)c2)c2ccc3cccnc3c2O)n1 (stereo not shown) [AD4-12916] | – | – | – | – | – | – | – | – | MLM % Remaining@ 30 Min [1]: 26%; HLM % Remaining@ 30 Min [2]: 80% |
| Cc1ccnc(NC(c2ccc(Cl)cc2Cl)c2ccc3cccnc3c2O)c1 (stereo not shown) [AD4-12912] | – | – | – | – | – | – | – | – | MLM % Remaining@ 30 Min [1]: 10%; HLM % Remaining@ 30 Min [2]: 38% |
| CC(C)C(=O)NC(c1cccs1)c1cc([N+](=O)[O-])c2cccnc2c1O (stereo not shown) [compound 10950] | 1.63 | 1.70 | 0.54 | 0.56 | 33.87 | 99.56 | 0.878 | 0.95 | – |
| Cc1cccc(NC(c2ccc(C(F)(F)F)cc2)c2ccc3cccnc3c2O)n1 (stereo not shown) [compound 10628] | – | – | 0.311 | 0.32 | 30.02 | – | 0.689 | 0.76 | – |
| Cc1cccc(NC(c2ccc(O)cc2)c2ccc3ccc(C)nc3c2O)n1 (stereo not shown) [compound 10037] | – | 0.42 | – | 43 | 32.12 | – | – | 18.2 | – |
| Oc1c(C(Nc2ccccn2)c2ccccc2F)ccc2cccnc12 (stereo not shown) [compound 10033] | 2.44 | 2.49 | 1.81 | 1.85 | 49.36 | 5.98 | 4.43 | 4.62 | – |
| Cc1ccc2ccc(C(Nc3ccccn3)c3ccc(F)cc3)c(O)c2n1 (stereo not shown) [compound 10045] | – | 0.73 | – | 13.5 | 27.22 | – | – | 9.85 | – |
| CCOc1ccc(NC(c2ccccn2)c2ccc3cccnc3c2O)cc1 (stereo not shown) [compound 1073] | – | 1.53 | – | – | 54.34 | 38.77 | – | – | IC50 [3, 8]: 4.83 µM; IC50 (MDBK line; [9]): 7.41 µM |
| Cc1cccc(NC(c2ccc(Cl)cc2)c2ccc3cccnc3c2O)n1 (stereo not shown) [compound 10058] | 1.56 | 1.13 | 1.08 | 5.14 | 28.52 | – | 1.68 | 5.83 | – |
| O=[N+]([O-])c1cccc(C(Nc2cccnc2)c2cc(Cl)c3cccnc3c2O)c1 (stereo not shown) [compound 10947] | – | 0.52 | – | 5.15 | 42.78 | 42.98 | – | 2.66 | – |
| CCN1CCN(C(c2cccnc2)c2cc(Cl)c3cccnc3c2O)CC1 (stereo not shown) [compound 10547] | – | 0.52 | – | 11.5 | 26.4 | – | – | 5.96 | – |
| Cc1cccc(NC(c2ccncc2)c2ccc3cccnc3c2O)n1 (stereo not shown) [compound 10974] | – | 1.14 | – | 4.19 | 50.44 | 44.13 | – | 4.77 | – |
| Cc1ccnc(NC(c2ccc(F)cc2)c2ccc3cccnc3c2O)c1 (stereo not shown) [compound 10522] | 1.14 | – | 1.65 | – | 26.6 | – | 1.89 | – | – |
| CCOc1ccc(C(Nc2ccccn2)c2cc(Cl)c3cccnc3c2O)cc1 (stereo not shown) [compound 10101] | 0.90 | 1.66 | 2.88 | – | 44.01 | 7.53 | 2.59 | – | IC50 [3, 8]: 5.77 µM; IC50 (MDBK line; [9]): 9.52 µM |
| Oc1c(C(Nc2ccc(OC(F)F)cc2)c2ccccn2)ccc2cccnc12 (stereo not shown) [compound 11072] | – | 0.49 | – | 43.2 | 44.06 | 36.82 | – | 21.1 | MTT-72 h % Max ([3]; 72 h): 12% |
| CCOc1cc(C(Nc2ccccn2)c2ccc3cccnc3c2O)ccc1OC (stereo not shown) [compound 1968] | – | 0.86 | – | 7.14 | 46.48 | 20.95 | – | 6.15 | – |
| Oc1c(C(Nc2ccccn2)c2ccc(Cl)cc2Cl)ccc2cccnc12 (stereo not shown) [compound 10484] | 2.12 | 2.70 | – | 0.32 | 26.3 | – | – | 0.85 | IC50 [3, 10]: 0.305 µM; IC50 (MDBK line; [11]): 0.679 µM |
| Cc1ccnc(NC(c2cccc(OCc3ccccc3)c2)c2ccc3cccnc3c2O)c1 (stereo not shown) [compound 10053] | 0.11 | – | 3.98 | – | 32.85 | – | 0.44 | – | – |
| Cc1ccc2ccc(C(Nc3ccccn3)c3ccc(O)cc3)c(O)c2n1 (stereo not shown) [compound 1997] | – | 0.52 | – | 46.8 | 29 | – | – | 24.3 | – |
| Cc1cccc(NC(c2ccc(C(F)(F)F)cc2)c2ccc3cccnc3c2O)n1 (stereo not shown) [compound 10483] | – | – | – | – | 17.58 | – | – | – | IC50 [3, 10]: 0.253 µM; IC50 [3, 8]: 0.26 µM; IC50 (MDBK line; [11]): 0.481 µM; IC50 (MDBK line; [9]): 0.49 µM |
| Fc1cccc(C(Nc2ccccn2)c2ccc3cccnc3c2)c1 (stereo not shown) [compound 11191] | – | 0.99 | – | 5.59 | 40.32 | 22.02 | – | 5.53 | – |
| CCCC(=O)NC(c1ccc(O)c(OCC)c1)c1cc([N+](=O)[O-])c2cccnc2c1O (stereo not shown) [compound 10959] | 2.16 | 2.47 | 0.96 | 0.98 | 42.18 | 87.34 | 2.07 | 2.43 | – |
| Cc1ccnc(NC(c2ccc(O)cc2)c2ccc3ccc(C)nc3c2O)c1 (stereo not shown) [compound 10016] | – | 1.00 | – | 25.8 | 41.45 | 29.99 | – | 25.8 | – |
| Cc1ccnc(NC(c2ccccc2F)c2ccc3cccnc3c2O)c1 (stereo not shown) [compound 10488] | 1.20 | – | 1.85 | – | 15.95 | – | 2.22 | – | – |
| Cc1ccc2ccc(C(Nc3ccccn3)c3ccc(C)s3)c(O)c2n1 (stereo not shown) [compound 10961] | – | 1.34 | – | 32.4 | 94.69 | 71.58 | – | 43.5 | MTT-72 h % Max ([3]; 72 h): 50% |
| Cc1cccc(NC(c2ccccc2C)c2ccc3ccc(C)nc3c2O)n1 (stereo not shown) [compound 10026] | – | 0.97 | – | 5.22 | 37.03 | 41.06 | – | 5.19 | – |
